Test results from patent publication US20210115509A1, “BIOMARKER FOR IDENTIFYING SPECIFIC EXPOSURE TO KETONES AND METHOD OF IDENTIFICATION USING THE SAME” (KOREA INSTITUTE OF SCIENCE AND TECHNOLOGY, priority 2019, published 2021).

Experiments:
[1] = test system: BEAS-2B human bronchial epithelial cell line; assay: MTT assay, cytotoxicity of ketone compounds in BEAS-2B cell line; type: cell-based; settings: human, 48 h
Procedure: BEAS-2B (Korean Cell Line Bank), a human bronchial epithelial cell line, was cultured using RPMI 1640 medium (Gibco, USA) supplemented with 10% FBS until the cells grew to about a confluence of 70 to 80% in a 100 mm dish.
Among ketones belonging to mVOCs (microbial volatile organic compounds) exposed to the environment, acetone, 2-butanone, 2-pentanone, 2-hexanone and 2-heptanone were selected, and the chemicals were dissolved in filtered distilled water (DW). A vehicle concentration was set to 0.1% or less in all experiments.
MTT assay using a BEAS-2B cell line was performed in accordance with the method of Mossman et al. (J. Immunol. Methods, 65, 55-63, 1983).
Specifically, the cells were seeded at a density of 3.5×10^4 cells/well in a 24-well plate and treated with the five ketone compounds dissolved in filtered distilled water, prepared in Example 1-2. After 48 hours, the result was mixed with 5 mg/ml of MTT (3-4,5-dimethylthiazol-2,5-diphenyltetrazolium bromide), added to a tube and incubated at 37° C. for 3 hours. Then, the medium was removed, the formed formazan crystal was dissolved in 500 μl of DMSO, and then 100 μl of the solution was transferred to a 96-well plate to measure an OD (optical density) value at 540 nm.

[2] = test system: BEAS-2B human bronchial epithelial cell line; assay: Gene expression change by high-throughput RNA sequencing (NextSeq 500) in ketone-exposed BEAS-2B cells; type: cell-based
Procedure: RNA was extracted from cell samples of ketone-exposed and non-ketone-exposed groups using a TRIzol reagent (Life Technologies, USA) in accordance with the manufacturer's directions to isolate total RNA and the total RNA was purified using a RNeasy mini kit (Qiagen, USA). The concentration of each total RNA sample was determined by a ND-2000 spectrophotometer (Thermo Inc., DE, USA) as a spectrophotometer and Agilent 2100 Bioanalyzer (Agilent Technologies, USA).
The establishment of libraries from the total RNA obtained in Example 2-1 in the experimental group and the normal control group exposed to the ketones was carried out using a QuantSeq 3′ mRNA-Seq Library Prep Kit (Lexogen, Inc., Austria) in accordance with the manufacturer's directions. 500 ng of the total RNA was hybridized with an oligo-dT primer including an Illumina-compatible sequence at the 5′ end of RNA, followed by reverse transcription. After degradation of the RNA template, a second strand was synthesized using a random primer including an Illumina-compatible linker sequence at the 5′ end thereof. Double-stranded libraries were purified using magnetic beads to remove all reaction components. The library was amplified in order to add the entire adapter sequence required for cluster production, and the completed cDNA library was purified from the PCR components.
Sequencing was performed by high-throughput sequencing as single-end 75 sequencing using a NextSeq 500 (IIlumina, Inc., USA). Read count (RC) data was processed based on the quantile normalization method using EdgeR in R (R development Core Team, 2016) using Bioconductor (Gentleman et al., 2004). Gene classification was based on searches performed on DAVID (http://david.abcc.ncifcrf.gov/) and the Medline database (http://www.ncbi.nlm.nih.gov/).
The extracted data were analyzed through normalization using Agilent GeneSpring GX 12.6.1 (Agilent technologies, CA, USA) to analyze the expression pattern of each gene.

[3] = IC5 conc.: Acetone 5.38, 2-Butanone 22.27, 2-Pentanone 5.24, 2-Hexanone 14.82, 2-Heptanone 5.05 mM
[4] = IC20 conc.: Acetone 71.90, 2-Butanone 106.21, 2-Pentanone 39.38, 2-Hexanone 52.51, 2-Heptanone 20.22 mM

## CCCCC(C)=O [2-Hexanone, 2-hexanone]
[1]
  concentration (105) providing a survival rate (viability) of 95%: 14820 µM
  concentration (1020) providing a survival rate (viability) of 80%: 52510 µM
[2]; [3]
  Fold change ADRA2A (NM_000681): 0.410
  Fold change ATRNL1 (NR_074088): 2.058
  Fold change C12orf79 (NR_046159): 0.218
  Fold change C14orf80 (NR_046159): 0.358
  Fold change CALML3 (NM_001286399): 0.358
  Fold change CCDC184 (NM_001013635): 3.872
  Fold change CD37 (NM_001040031): 4.214
  Fold change CDHR1 (NM_001171971): 0.228
  Fold change CHL1 (NM_001253387): 0.296
  Fold change COL4A3 (NM_000091): 4.765
  Fold change CRLF2 (NM_022148): 0.362
  Fold change CSF3R (NM_172313): 0.358
  Fold change DNMBP-AS1 (NR_024130): 14.919
  Fold change EGR1 (NM_001964): 0.448
  Fold change GNA14 (NM_004297): 8.515
  Fold change LOC728752 (NR_036504): 6.212
  Fold change PAX8 (NM_003466): 5.964
  Fold change PRRT3-AS1 (NR_046734): 2.811
  Fold change RBP3 (NM_002900): 0.358
  Fold change SEPT14 (NM_207366): 0.220
  Fold change SERPINA12 (NM_001304461): 0.358
  Fold change SLC13A4 (NM_012450): 4.947
  Fold change SPOCK2 (NM_001244950): 4.851
  Fold change TSPAN1 (NM_005727): 2.828
  Fold change USP12-AB1 (NR_046647): 3.862
  Fold change VIPR†-AS1 (NR_046654): 0.358
  Fold change XIRP1 (NM_001198621): 0.358
  Fold change ZFP69B (NM_023070): 4.095
  Fold change ZNF432 (NM_014650): 5.206
  Fold change ZNF487 (NR_026693): 0.358
[2]; [4]
  Fold change ADRA2A (NM_000681): 0.179
  Fold change ATRNL1 (NR_074088): 2.281
  Fold change C12orf79 (NR_046159): 0.213
  Fold change C14orf80 (NR_046159): 0.354
  Fold change CALML3 (NM_001286399): 0.354
  Fold change CCDC184 (NM_001013635): 6.982
  Fold change CD37 (NM_001040031): 2.819
  Fold change CDHR1 (NM_001171971): 0.432
  Fold change CHL1 (NM_001253387): 0.364
  Fold change COL4A3 (NM_000091): 4.424
  Fold change CRLF2 (NM_022148): 0.355
  Fold change CSF3R (NM_172313): 0.354
  Fold change DNMBP-AS1 (NR_024130): 5.009
  Fold change EGR1 (NM_001964): 0.328
  Fold change GNA14 (NM_004297): 4.986
  Fold change LOC728752 (NR_036504): 6.982
  Fold change PAX8 (NM_003466): 2.992
  Fold change PRRT3-AS1 (NR_046734): 3.123
  Fold change RBP3 (NM_002900): 0.354
  Fold change SEPT14 (NM_207366): 0.214
  Fold change SERPINA12 (NM_001304461): 0.354
  Fold change SLC13A4 (NM_012450): 7.012
  Fold change SPOCK2 (NM_001244950): 3.833
  Fold change TSPAN1 (NM_005727): 4.272
  Fold change USP12-AB1 (NR_046647): 3.988
  Fold change VIPR†-AS1 (NR_046654): 0.354
  Fold change XIRP1 (NM_001198621): 0.354
  Fold change ZFP69B (NM_023070): 2.573
  Fold change ZNF432 (NM_014650): 4.577
  Fold change ZNF487 (NR_026693): 0.354
